Source: article PMC8398472, “Anticancer Diiron Vinyliminium Complexes: A Structure–Activity Relationship Study” (Pharmaceutics, 2021)
Several values for one entry are separate records, joined by “and”; a condition that tells them apart may be missing. Equal entries are not always repeated. Where two headings read alike, the source gives them in different places.

What was measured:
[1] = Octanol–water partition coefficient (shake-flask, UV–Vis); type: physicochemical; conditions: 21 °C
Description: • (c) Octanol–water partition coefficients (Log Pow). Partition coefficients (Pow; IUPAC: KD partition constant), defined as Pow = corg/caq, where corg and caq are molar concentrations of the selected compound in the organic and aqueous phase, respectively, were determined by the shake-flask method and UV–Vis measurements. Deionized water and 1-octanol were vigorously stirred for 24 h to enable saturation of both phases, then separated by centrifugation. A stock solution of the selected diiron compound (ca. 2 mg; 2a–c, 3b, 4a–c, 5a, 5c, 6b,c, 7) was prepared by first adding acetone (50 μL, to help solubilization), followed by water-saturated octanol (2.5 mL). The solution was diluted with water-saturated octanol (ca. 1:3 v/v ratio, cFe2 ≈ 10^−4 M, so that 1.5 ≤ A ≤ 2.0 at λmax) and the UV–Vis spectrum was recorded (A^0org). An aliquot of the solution (Vorg = 1.2 mL) was transferred into a test tube and octanol-saturated water (Vorg = Vaq = 1.2 mL) was added. The mixture was vigorously stirred for 15 min at 21 °C and then centrifuged (5000 rpm, 10 min). The UV–Vis spectrum of the organic phase was recorded (A^forg) and the partition coefficient was calculated as Pow = A^forg/(A^0org − A^forg), where A^0org and A^forg are the absorbance in the organic phase before and after partition with the aqueous phase, respectively. An inverse procedure was followed for 3a, 3c, 5b and 6a, starting from a solution of the compound in octanol-saturated water. The partition coefficient was calculated as Pow = (A^0aq − A^faq)/A^faq where A^0aq and A^faq are the absorbance in the aqueous phase before and after partition with the organic phase, respectively. The wavelength of the maximum absorption of each compound (ca. 300 nm) was used for UV–Vis quantitation. The procedure was repeated three times for each sample (from the same stock solution); results are given as mean ± standard deviation.

[2] = Solubility in D2O by 1H NMR (Me2SO2 internal standard); type: physicochemical; conditions: for Solubility: 21 °C
Description: (§1) • (a) Solubility in D2O. A suspension of the selected diiron compound (3–5 mg) in a D2O solution (ca. 1 mL) containing Me2SO2 (3.36 × 10^−3 M) as internal standard was vigorously stirred at 21 °C for 1.5 h. The resulting saturated solution was filtered over celite, transferred into an NMR tube and then analyzed by ^1H NMR spectroscopy (delay time = 3 s; number of scans = 20). The concentration (solubility) was calculated by the relative integral (related to Cp and/or NMe signals) with respect to Me2SO2 (δ = 3.14 ppm). • (b) Stability in DMSO-d6/D2O solution. The selected diiron compound (ca. 4 mg) was added of 1 mL of D2O (3a,c) or DMSO-d6/D2O (2:1 v/v) mixture (2a,c, 3b, 4a–c, 5a–c, 6a–c, 7), containing Me2SO2 (3.36 × 10^−3 M). The resulting mixture was stirred for 30 min and then filtered over celite; the filtrated solution was transferred into an NMR tube. The sample was analyzed by ^1H NMR (time = 0) and then heated at 37 °C for 72 h. After cooling to room temperature, the solution was separated from a small amount of solid by filtration over celite, and the new ^1H NMR spectrum was recorded (delay time = 3 s; number of scans = 20). In every case, no newly formed organometallic species was detected. The amount of starting material in solution (% with respect to the initial spectrum) was calculated by the relative integral (vs. Cp and/or NMe signals) with respect to Me2SO2 as internal standard.

[3] = tested on: mouse embryo fibroblasts Balb/3T3 clone A31; assay: Cytotoxicity, WST-1 cell viability assay, Balb/3T3 clone A31; type: cell-based; conditions: 72 h exposure
Description: (§2) In vitro cytotoxicity investigations were carried out by using human ovarian carcinoma cisplatin-sensitive A2780 (ECACC93112519), human ovarian carcinoma cisplatin-resistant A2780cisR (ECACC 93112517) and mouse embryo fibroblasts Balb/3T3 clone A31 (ATCC CCL-163) cell lines. A2780 and A2780cisR were purchased from the European Collection of Authenticated Cell Cultures (ECACC), and Balb/3T3 clone A31 cell line from the American Type Culture Collection (ATCC).
(§3) A2780 and A2780cisR cells were routinely cultured in RPMI 1640 (Merck) containing 2 mM of L-glutamine (Merck), 1% of penicillin/streptomycin solution (Merck—10 000 U mL^−1: 10 mg mL^−1), 10% of fetal bovine serum (Merck—FBS) and antimycotic (InvivoGen, USA), and Balb/3T3 clone A31 in Dulbecco’s modified Eagle medium (Merck—DMEM) supplemented with 4 mM of L-glutamine, 1% of penicillin/streptomycin solution, 10% of calf serum (Merck) and antimycotic. […] The cultures were maintained at 37 °C and in a 5% CO2-enriched atmosphere.
(§4) A2780, A2780cisR and Balb/3T3 clone A31 cells were seeded in 96-well tissue culture polystyrene plates at a concentration of 3 × 10^3, 6 × 10^3 and 1 × 10^3 cells per well, respectively. After overnight incubation, the cells were treated with different concentrations (0–100 µM) of the selected compounds for 72 h at 37 °C in a 5% atmosphere of CO2. Stock solutions of compounds were prepared in DMSO and sequentially diluted in medium (final DMSO concentration of 0.5%). […] At the end of the incubation time, cell viability was assessed by means of WST-1 tetrazolium salt reagent (Roche). Briefly, cells were incubated for 4 h with the tetrazolium salt reagent diluted 1:10, at 37 °C and 5% CO2. Measurements of formazan dye absorbance, which directly correlates with the number of viable cells, were carried out with a micro-plate reader (Biorad) at 450 nm, using 655 nm as reference wavelength. The 50% inhibitory concentration (IC50) refers to compound concentration at which 50% of cell death is observed with respect to the control. For each tested compound, assay was performed on triplicate. The concentration effect curves were generated by nonlinear regression curves (GraphPad Prism Software, 2021) and the data reported as mean ± standard deviation.

[4] = Stability in DMSO-d6/D2O or D2O solution at 37 °C for 72 h (1H NMR); type: physicochemical; conditions: 72 h at 37 °C
Description: as §1

[5] = tested on: human ovarian carcinoma cisplatin-sensitive A2780; assay: Cytotoxicity, WST-1 cell viability assay, A2780; type: cell-based; conditions: for IC50: 72 h exposure; for Selectivity index (S.I.): ratio between IC50 for Balb/3T3 and IC50 for A2780
Description: as §2, §3, §4

[6] = tested on: human ovarian carcinoma cisplatin-resistant A2780cisR; assay: Cytotoxicity, WST-1 cell viability assay, A2780cisR; type: cell-based; conditions: 72 h exposure
Description: as §2, §3, §4

[7] = tested on: human ovarian carcinoma cisplatin-sensitive A2780; set-up: method as in PMID 31441186; conditions: previously determined on the same cell line; cited from earlier work
[8] = cited from earlier work; for Log Pow: previously determined

Compound: [Fe2Cp2(CO)(μ-CO){μ-η^1:η^3-C^3(Me)C^2HC^1NMe(CH2CH = CH2)}]CF3SO3 [Compound 3a]
- Log Pow [1]: −0.75 ± 0.01
- Solubility [2]: 6.43 × 10^−3 mol·L^−1 and 3.66 g·L^−1
- IC50 [3]: > 100 µM
- Stability % (residual % of starting material) ([4]; neat D2O): 93 ^a %
- IC50 [5]: 17.7 ± 0.8 µM
- Selectivity index (S.I.) [5]: >5.6

Compound: [Fe2Cp2(CO)(μ-CO){μ-η^1:η^3-C^3(Me)C^2HC^1N(CH2Ph)2}]CF3SO3 [Compound 2a]
- Log Pow [1]: 0.45 ± 0.04
- IC50 [3]: 14 ± 4 µM
- Stability % (residual % of starting material) ([4]; DMSO-d6/D2O (2:1 v/v)): 81%
- IC50 [5]: 2 ± 0.7 µM
- Selectivity index (S.I.) [5]: 7

Compound: N.N.[Cl][Pt][Cl] [cisplatin, reference compound]
- IC50 [3]: 0.8 ± 0.2 µM
- IC50 [6]: 26 ± 3 µM
- IC50 [5]: 0.4 ± 0.07 µM

Compound: [Fe2Cp2(CO)(μ-CO){μ-η^1:η^3-C^3(Me)C^2HC^1NMe2}]CF3SO3
- IC50 [7]: 35 ± 3 µM
- Log Pow [8]: −0.3

Compound: [Fe2Cp2(CO)(μ-CO){μ-η^1:η^3-C^3(Et)C^2(Et)C^1NMe(CH2Ph)}]CF3SO3 [Compound 5c]
- Log Pow [1]: 0.13 ± 0.01
- Solubility [2]: 1.10 × 10^−3 mol·L^−1 and 0.73 g·L^−1
- IC50 [3]: 90 ± 8 µM
- Stability % (residual % of starting material) ([4]; DMSO-d6/D2O (2:1 v/v)): 84%
- IC50 [5]: 3.75 ± 0.14 µM
- Selectivity index (S.I.) [5]: 24

Compound: [Fe2Cp2(CO)(μ-CO){μ-η^1:η^3-C^3(Me)C^2HC^1NMe(4-C6H4OMe)}]CF3SO3 [Compound 6a]
- Log Pow [1]: −0.46 ± 0.01
- Solubility [2]: 2.22 × 10^−3 mol·L^−1 and 1.41 g·L^−1
- IC50 [3]: 94 ± 4 µM
- Stability % (residual % of starting material) ([4]; DMSO-d6/D2O (2:1 v/v)): 94%
- IC50 [5]: 3.5 ± 0.5 µM
- Selectivity index (S.I.) [5]: 27

Compound: Cc1cccc(C)c1[N+](C)=[C]1C=[C](c2ccccc2)[Fe+]2(=[C]=O)[C](=O)[Fe+]12.O=S(=O)([O-])C(F)(F)F.c1cc[cH-]c1.c1cc[cH-]c1 (stereo not shown) [[Fe2Cp2(CO)(μ-CO){μ-η^1:η^3-C^3(Ph)C^2HC^1NMe(Xyl)}]CF3SO3]
- IC50 [7]: 0.9 ± 0.06 µM
- Log Pow [8]: 0.4

Compound: [Fe2Cp2(CO)(μ-CO){μ-η^1:η^3-C^3(Ph)C^2HC^1N(CH2Ph)2}]CF3SO3 [Compound 2b]
- Log Pow [1]: 1.4 and 1.4 ± 0.2
- Solubility in D2O (in words) [2]: almost insoluble in D2O

Compound: O=C1C=CC(=O)c2ccccc21 [Naphthoquinone]
- Log P ([8]; literature value): 1.71

Compound: [Fe2Cp2(CO)(μ-CO){μ-η^1:η^3-C^3(Me)C^2(Me)C^1NMe(CH2CH = CH2)}]CF3SO3 [Compound 3c]
- Log Pow [1]: −0.77 ± 0.01
- Solubility [2]: 6.89 × 10^−3 mol·L^−1 and 4.02 g·L^−1
- IC50 [3]: > 100 µM
- Stability % (residual % of starting material) ([4]; neat D2O): 85 ^a %
- IC50 [5]: ~17 µM and 17 µM
- Selectivity index (S.I.) [5]: >5.9

Compound: [Fe2Cp2(CO)(μ-CO){μ-η^1:η^3-C^3(Me)C^2HC^1NMe(CH2Ph)}]CF3SO3 [Compound 5a]
- Log Pow [1]: −0.26 ± 0.01
- IC50 [3]: > 100 µM
- Stability % (residual % of starting material) ([4]; DMSO-d6/D2O (2:1 v/v)): 85%
- IC50 [5]: 7.1 ± 0.4 µM
- Selectivity index (S.I.) [5]: >14

Compound: [Fe2Cp2(CO)(μ-CO){μ-η^1:η^3-C^3(Ph)C^2HC^1NMe(Cy)}]CF3SO3 [Compound 4b]
- Log Pow [1]: 0.41 ± 0.02
- Solubility [2]: 1.52 × 10^−3 mol·L^−1 and 1.02 g·L^−1
- IC50 [3]: 35 ± 3 µM
- Stability % (residual % of starting material) ([4]; DMSO-d6/D2O (2:1 v/v)): 65%
- IC50 [5]: 2.6 ± 0.3 µM
- Selectivity index (S.I.) [5]: 13

Compound: CC1=[C](C)[Fe+]2(=[C]=O)[C](=O)[Fe+]2[C]1=[N+](C)c1c(C)cccc1C.O=S(=O)([O-])C(F)(F)F.c1cc[cH-]c1.c1cc[cH-]c1 (stereo not shown) [[Fe2Cp2(CO)(μ-CO){μ-η^1:η^3-C^3(Me)C^2(Me)C^1NMe(Xyl)}]CF3SO3]
- IC50 [7]: 0.5 ± 0.06 µM
- Log Pow [8]: 0.0
